Experimental data as given in paper PMC6150220, “An Optimized and Sensitive Pharmacokinetic Quantitative Method of Investigating Gastrodin, Parishin, and Parishin B, C and E in Beagle Dog Plasma using LC-MS/MS after Intragastric Administration of Tall Gastrodia Capsules” (Molecules : A Journal of Synthetic Chemistry and Natural …, 2017).

Assay: in vivo
Description: After full validation, the LC-ESI-MS/MS method was used to analyze large batches of beagle dog plasma. […] The corresponding pharmacokinetic parameters were generated by fitting plasma concentration profiles to a non-compartmental model. These are summarized in Table 3, expressed as the mean ± SD (n = 5).
Quantitative analysis was conducted on a 1290 UPLC-photodiode array 6460 triple quadrupole mass spectrometry system (LC-MS/MS, Agilent Technologies, Palo Alto, CA, USA). Analysis was carried out on. Separation of analytes was performed on a reversed phase Agilent Zorbax XDB-C18 HPLC column (2.1 mm × 50 mm, particle size 3.5 μm) with the column oven set to 30 °C. The elution gradient was carried out with a binary solvent system consisting of an aqueous solution of 0.4% v/v formic acid in water (A) and acetonitrile (B) at a flow rate of 0.15 mL/min. Optimized separation was obtained according to a linear gradient (0–2 min, 2% B; 2–4 min, 2–12% B; 4–8 min, 12–20% B; 8–14 min, 20–28% B; […], 28–90% B). MS/MS conditions were as follows: negative ion mode, drying gas (N2) flow rate 8.0 L/min, drying gas temperature 300 °C, declustering potential 150 V, nebulizer pressure 45 psi, ESI Vcap 3500 V, sheath gas temperature 300 °C, sheath gas flow 12 L/min, nozzle voltage 500 V. The mass transition of gastrodin (m/z 331.1→123.0, CE: 3 eV), parishin (m/z 995.4→727.0, CE: 42 eV), parishin B (m/z 727.3→423.0, CE: 20 eV), parishin C (m/z 727.3→423.1, CE: 20 eV), parishin E (m/z 459.3→110.9, CE: 19 eV) and bergenin (m/z 327.0→234.0, CE: 4 eV).
Adult male […] beagle dogs (12 kg ± 0.020 kg) were purchased from Beijing Shahe Bio-Technology (Beijing, China; certificate No. SCXK2014-0007). Before drug administration, the dogs were fasted for 12 h with free access to water. They were maintained on a 12 h light-dark cycle (light on from 6:00 to 18:00 h) at ambient temperature (22–24 °C) with 60% relative humidity. The animals were observed twice daily and body weights were recorded once per day to assess their general health. All experimental protocols on animals were carried out according to the Guidelines of the Committee on the Care and Use of Laboratory Animals of China.
Fifteen beagle dogs were randomly divided into three groups to receive an intragastric dose of tall Gastrodia capsules (0.125, 0.25 and 0.5 g/kg). Capsules were ultrasonically dissolved in pure water and suspended at concentrations of 5, 10 and 20 mg/mL for intragastric administration. […] The HPLC quantitative analysis was based on the previous report with some modification. After administration, serial blood samples (about 2.00 mL) were collected from the foreleg vein […] into heparin-containing capillary tubes at 10, 20, 30, 45, 60, 120, 180, 240, 480, 720 and 1440 min. Blood samples were promptly centrifuged at 5000 rpm for 5 min, and the plasma was separated and stored at −20 °C until analysis.
Plasma samples were thawed to 4 °C before processing. An aliquot of 200 μL of the plasma sample was transferred into an Eppendorf tube, and 1000 μL of ice-cold 1% formic acid methanol containing IS (10 μL, 2.0 μg/mL) was added to precipitate the plasma proteins. Samples were then vortexed for 3 min and centrifuged at 12,000 rpm for 10 min. The supernatant was transferred and evaporated to dryness under a gentle stream of nitrogen at 40 °C. The residue was reconstituted in 200 μL of 5.0% methanol–water, and a 10 μL aliquot was injected for analysis.

[1] = male, beagle, dog, in vivo, po, 0.125 g/kg
[2] = male, beagle, dog, in vivo, po, 0.25 g/kg
[3] = male, beagle, dog, in vivo, po, 0.5 g/kg

| SMILES | AUC(0-inf) [1] | AUC(0-t) [1] | Cmax [1] | MRT inf [1] | MRT last [1] | Tmax [1] | half-life [1] | AUC(0-inf) [2] | AUC(0-t) [2] | Cmax [2] | MRT inf [2] | MRT last [2] | Tmax [2] | half-life [2] | AUC(0-inf) [3] | AUC(0-t) [3] | Cmax [3] | MRT inf [3] | MRT last [3] | Tmax [3] | other results |
| --- | --- | --- | --- | --- | --- | --- | --- | --- | --- | --- | --- | --- | --- | --- | --- | --- | --- | --- | --- | --- | --- |
| O=C(CC(O)(CC(=O)OCc1ccc(OC2OC(CO)C(O)C(O)C2O)cc1)C(=O)OCc1ccc(OC2OC(CO)C(O)C(O)C2O)cc1)OCc1ccc(OC2OC(CO)C(O)C(O)C2O)cc1 (centres unmarked) [Parishin, parishin] | 899 ± 299 ng·h/mL | 868 ± 314 ng·h/mL | 388 ± 116 ng/mL | 2 ± 0.3 h | 1.8 ± 0.42 h | 1 ± 0.56 h | 1.15 ± 0.18 h | 1520 ± 832 ng·h/mL | 1500 ± 836 ng·h/mL | 462 ± 230 ng/mL | 2.65 ± 0.44 h | 2.49 ± 0.4 h | 1.55 ± 0.62 h | 1.38 ± 0.34 h | 3280 ± 1370 ng·h/mL | 3270 ± 1370 ng·h/mL | 969 ± 292 ng/mL | 2.5 ± 0.35 h | 2.48 ± 0.36 h | 1.45 ± 0.76 h | Mean plasma clearance (CL) (male, beagle, dog, in vivo, po): 52.3 mL/min/kg; CL (plasma clearance) [1]: 44.8 ± 16.8 mL/min/kg; CL (plasma clearance) [2]: 59.3 ± 29.2 mL/min/kg; CL (plasma clearance) [3]: 53 ± 27.5 mL/min/kg; half-life [3]: 1.05 ± 0.16 h |
| OCc1ccc(O[C@@H]2O[C@H](CO)[C@@H](O)[C@H](O)[C@H]2O)cc1 [Gastrodin, gastrodin] | 5080 ± 2110 ng·h/mL | 4890 ± 2060 ng·h/mL | 1200 ± 120 ng/mL | 3.33 ± 1.09 h | 2.98 ± 1.01 h | 1.1 ± 0.52 h | 1.86 ± 0.67 h | 9170 ± 1790 ng·h/mL | 8830 ± 1860 ng·h/mL | 2050 ± 495 ng/mL | 3.8 ± 0.28 h | 3.46 ± 0.29 h | 1.75 ± 0.9 h | 1.9 ± 0.26 h | 17600 ng·h/mL | 17000 ng·h/mL | 3760 ± 778 ng/mL | 3.93 ± 0.99 h | 3.54 ± 0.69 h | 2 ± 0.71 h | Time after administration at which detected in plasma (beagle dog plasma, intragastric capsules, all three dosage levels): 10 min; CL (plasma clearance) (beagle dog plasma, intragastric tall Gastrodia capsules, high dose 0.5 g/kg, mean ± SD, n = 5): 3.5 ± 0.83 mL/min/kg; CL (plasma clearance) (beagle dog plasma, intragastric tall Gastrodia capsules, low dose 0.125 g/kg, mean ± SD, n = 5): 3.5 ± 2.17 mL/min/kg; CL (plasma clearance) (beagle dog plasma, intragastric tall Gastrodia capsules, medium dose 0.25 g/kg, mean ± SD, n = 5): 3.33 ± 0.67 mL/min/kg; Mean plasma clearance (CL) (beagle dogs, mean over the three intragastric dose levels of tall Gastrodia capsules): 3.3 mL/min/kg; half-life [3]: 2.09 ± 0.68 h |
| O=C(CC(O)(CC(=O)OCc1ccc(O[C@@H]2O[C@H](CO)[C@@H](O)[C@H](O)[C@H]2O)cc1)C(=O)O)OCc1ccc(O[C@@H]2O[C@H](CO)[C@@H](O)[C@H](O)[C@H]2O)cc1 [Parishin C, parishin C] | 359 ± 99.3 ng·h/mL | 349 ± 100 ng·h/mL | 107 ± 29.4 ng/mL | 2.7 ± 0.28 h | 2.47 ± 0.28 h | 1.35 ± 0.6 h | 1.37 ± 0.18 h | 578 ± 200 ng·h/mL | 567 ± 198 ng·h/mL | 144 ± 55.1 ng/mL | 3.31 ± 0.59 h | 3.14 ± 0.54 h | 2 ± 0.71 h | 1.56 ± 0.41 h | 1100 ± 527 ng·h/mL | 1090 ± 523 ng·h/mL | 243 ± 99.6 ng/mL | 3.25 ± 0.72 h | 3.18 ± 0.69 h | 2.4 ± 0.55 h | Mean plasma clearance (CL) (male, beagle, dog, in vivo, po): 16 mL/min/kg; CL (plasma clearance) [1]: 12 ± 3.83 mL/min/kg; CL (plasma clearance) [2]: 15.2 ± 3.83 mL/min/kg; CL (plasma clearance) [3]: 21 ± 17.5 mL/min/kg; half-life [3]: 1.29 ± 0.36 h |
| O=C(O)CC(O)(CC(=O)OCc1ccc(OC2OC(CO)C(O)C(O)C2O)cc1)C(=O)OCc1ccc(OC2OC(CO)C(O)C(O)C2O)cc1 (centres unmarked) [Parishin B, parishin B] | 1570 ± 533 ng·h/mL | 1550 ± 530 ng·h/mL | 526 ± 143 ng/mL | 2.32 ± 0.25 h | 2.25 ± 0.26 h | 1.25 ± 0.69 h | 1.08 ± 0.11 h | 2720 ± 1140 ng·h/mL | 2700 ± 1130 ng·h/mL | 746 ± 320 ng/mL | 2.84 ± 0.44 h | 2.78 ± 0.42 h | 1.8 ± 0.45 h | 1.18 ± 0.29 h | 4720 ± 2330 ng·h/mL | 4700 ± 2330 ng·h/mL | 1220 ± 562 ng/mL | 2.8 ± 0.42 h | 2.76 ± 0.44 h | 2 ± 0.71 h | Mean plasma clearance (CL) (male, beagle, dog, in vivo, po): 14.5 mL/min/kg; CL (plasma clearance) [1]: 12 ± 6.5 mL/min/kg; CL (plasma clearance) [2]: 13 ± 3.83 mL/min/kg; CL (plasma clearance) [3]: 18.5 ± 14 mL/min/kg; half-life [3]: 1.17 ± 0.22 h |
